Drawing on patent US8497245B2, “Trypsin-like serine protease inhibitors, their preparation and use as selective inhibitors of the clotting factors IIa and Xa” (The Medicines Company (Leipzig) GmbH, priority 2010, dated 2013), this text covers Ki for seven compounds.

Each structure is given as a SMILES string. pKi: −log10 of the molar value. Some results are limits rather than exact numbers.

Common to all, as to format: biochemical
Assay [1] has as its target T1, Subcomponent "s" of Human Complement Component 1 (h C1s) (Homo sapiens, UniProt P09871).
T1 construct: purchased Calbiochem
T1 sequence (P09871 438-688 limits assumed): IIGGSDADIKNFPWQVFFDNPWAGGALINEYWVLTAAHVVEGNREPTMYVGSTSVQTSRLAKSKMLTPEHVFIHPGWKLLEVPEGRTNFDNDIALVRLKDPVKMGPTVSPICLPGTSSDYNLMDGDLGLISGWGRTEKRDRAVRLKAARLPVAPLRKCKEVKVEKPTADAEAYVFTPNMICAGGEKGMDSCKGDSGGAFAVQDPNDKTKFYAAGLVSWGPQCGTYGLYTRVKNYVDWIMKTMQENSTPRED
T1 sequence (P09871 16-437 partner limits assumed): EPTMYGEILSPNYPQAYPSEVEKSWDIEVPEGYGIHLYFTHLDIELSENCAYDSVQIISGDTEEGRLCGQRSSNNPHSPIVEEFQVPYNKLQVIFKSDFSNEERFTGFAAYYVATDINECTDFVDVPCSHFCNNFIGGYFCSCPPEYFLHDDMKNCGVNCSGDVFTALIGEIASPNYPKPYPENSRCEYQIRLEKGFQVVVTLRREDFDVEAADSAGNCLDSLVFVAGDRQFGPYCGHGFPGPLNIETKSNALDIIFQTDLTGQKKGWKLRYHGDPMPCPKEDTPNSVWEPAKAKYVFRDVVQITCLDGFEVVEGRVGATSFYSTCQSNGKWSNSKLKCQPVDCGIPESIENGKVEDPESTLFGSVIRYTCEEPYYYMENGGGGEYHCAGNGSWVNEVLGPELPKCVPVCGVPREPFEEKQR
Briefly: Inhibition of human C1s (reference enzyme). To be noted: S-2314 substrate; read-out: Ki h Cls. On the procedure: (§1) The inhibitory effect against the individual purified enzymes was determined in analogy to a previously disclosed method (Stürzebecher et al., J. Med. Chem., 40, 3091-3099 (1997)).
(§2) The release of p-nitroaniline (p-NA, the chromogenic product of the proteolytic activity), was determined by change in absorbance at 405 nm. The equilibrium rates were used to calculate the inhibitor/enzyme dissociation constant (Ki values) by parameter fitting in accordance with the rate equation for competitive inhibition using GraFit (version 4 from Erithacus). The results are reported as Ki values (nanomolar) in table 7 and are the average of at least three determinations.
(§3) Dissociation constants were calculated as described herein.

The target of assay [2] is T2, Human urokinase type plasminogen activator (h u-PA) (Homo sapiens, UniProt P00749).
T2 construct: purchased MEDAC GmbH Urokinase HS medac
Briefly: Inhibition of human urokinase type plasminogen activator (reference enzyme). To be noted: H-Glu-Gly-Arg-pNA substrate. The procedure:
as §1, §2, §3

For assay [3], the target named is T3, Human Activated Protein C (h aPC) (Homo sapiens, UniProt P04070).
T3 construct: purchased Enzyme Research Laboratories
T3 sequence (P04070 212-450 limits assumed): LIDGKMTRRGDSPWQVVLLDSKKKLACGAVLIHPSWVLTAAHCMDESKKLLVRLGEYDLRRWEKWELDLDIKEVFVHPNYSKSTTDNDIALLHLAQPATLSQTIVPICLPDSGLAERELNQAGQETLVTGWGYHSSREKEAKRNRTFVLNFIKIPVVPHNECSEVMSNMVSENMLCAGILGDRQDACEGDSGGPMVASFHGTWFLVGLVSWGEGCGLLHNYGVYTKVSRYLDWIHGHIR
T3 sequence (P04070 43-197 partner limits assumed): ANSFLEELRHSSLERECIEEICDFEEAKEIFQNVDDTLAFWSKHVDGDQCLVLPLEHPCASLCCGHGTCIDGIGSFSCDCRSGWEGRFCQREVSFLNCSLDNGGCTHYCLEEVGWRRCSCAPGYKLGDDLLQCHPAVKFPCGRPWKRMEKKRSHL
The experiment in a line: Inhibition of human activated protein C (reference enzyme). To be noted: Pefachrome PCa substrate. On the procedure:
as §1, §2, §3

In assay [4] the target is T4, Human plasma kallikrein (h PK) (Homo sapiens, UniProt P03952).
T4 construct: purchased Enzyme Research Laboratories
T4 sequence (P03952 391-638 limits assumed): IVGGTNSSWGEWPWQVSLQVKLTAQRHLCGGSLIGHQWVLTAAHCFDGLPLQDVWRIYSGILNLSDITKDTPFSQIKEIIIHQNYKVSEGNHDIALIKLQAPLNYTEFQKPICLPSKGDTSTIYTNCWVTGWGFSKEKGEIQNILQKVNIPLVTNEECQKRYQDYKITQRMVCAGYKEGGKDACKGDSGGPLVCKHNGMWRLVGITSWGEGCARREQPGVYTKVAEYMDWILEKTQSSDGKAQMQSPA
T4 sequence (P03952 20-390 partner limits assumed): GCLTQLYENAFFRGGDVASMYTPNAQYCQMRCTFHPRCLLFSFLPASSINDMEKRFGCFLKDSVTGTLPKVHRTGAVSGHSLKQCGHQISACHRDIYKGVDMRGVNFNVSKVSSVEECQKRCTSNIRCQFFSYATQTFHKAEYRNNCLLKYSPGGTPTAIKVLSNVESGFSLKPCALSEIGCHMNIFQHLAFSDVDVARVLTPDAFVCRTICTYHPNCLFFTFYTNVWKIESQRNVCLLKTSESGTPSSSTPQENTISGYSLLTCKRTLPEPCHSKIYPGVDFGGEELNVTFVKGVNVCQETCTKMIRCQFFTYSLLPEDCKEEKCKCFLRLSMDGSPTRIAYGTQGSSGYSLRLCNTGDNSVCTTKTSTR
The experiment in a line: Inhibition of human plasma kallikrein (reference enzyme). To be noted: S2302 substrate. On the procedure:
as §1, §2, §3

Assay [5] concerns the target T5, Subcomponent "r" of Human Complement Component 1 (h C1r) (Homo sapiens, UniProt P00736).
T5 construct: purchased Calbiochem
T5 sequence (P00736 464-705 limits assumed): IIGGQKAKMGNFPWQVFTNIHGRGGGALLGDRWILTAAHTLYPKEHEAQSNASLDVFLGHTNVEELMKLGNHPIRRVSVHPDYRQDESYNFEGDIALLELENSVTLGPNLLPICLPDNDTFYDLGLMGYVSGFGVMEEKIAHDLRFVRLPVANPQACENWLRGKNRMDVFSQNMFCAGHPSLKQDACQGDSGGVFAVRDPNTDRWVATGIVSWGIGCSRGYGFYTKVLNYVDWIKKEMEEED
T5 sequence (P00736 18-463 partner limits assumed): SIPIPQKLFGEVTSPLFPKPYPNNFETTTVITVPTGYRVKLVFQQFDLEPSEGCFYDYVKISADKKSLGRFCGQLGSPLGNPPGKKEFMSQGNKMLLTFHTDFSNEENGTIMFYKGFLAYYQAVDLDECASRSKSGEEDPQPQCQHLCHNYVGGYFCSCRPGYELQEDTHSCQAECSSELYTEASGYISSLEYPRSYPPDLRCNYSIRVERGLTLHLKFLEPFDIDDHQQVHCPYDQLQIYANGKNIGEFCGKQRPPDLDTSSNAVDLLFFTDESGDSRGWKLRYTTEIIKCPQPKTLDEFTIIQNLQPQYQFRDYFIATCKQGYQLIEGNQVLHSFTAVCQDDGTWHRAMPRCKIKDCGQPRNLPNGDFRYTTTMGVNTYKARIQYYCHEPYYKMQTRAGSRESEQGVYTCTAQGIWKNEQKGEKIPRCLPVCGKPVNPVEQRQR
The experiment in a line: Inhibition of human C1r (reference enzyme). The conditions noted are these: S-2314 substrate; read-out: Ki h Clr. The procedure:
as §1, §2, §3

The target in assay [6] is T6, Human urinary kallikrein (h uKK) (Homo sapiens, UniProt P06870).
T6 construct: purchased Lee Biosolutions
T6 sequence (P06870 25-262): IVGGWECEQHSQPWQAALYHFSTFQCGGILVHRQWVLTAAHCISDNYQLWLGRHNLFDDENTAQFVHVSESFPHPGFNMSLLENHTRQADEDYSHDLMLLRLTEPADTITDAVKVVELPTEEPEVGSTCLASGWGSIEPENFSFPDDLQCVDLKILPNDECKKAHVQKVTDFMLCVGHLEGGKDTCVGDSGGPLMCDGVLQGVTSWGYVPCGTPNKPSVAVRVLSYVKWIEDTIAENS
Briefly: Inhibition of human urinary kallikrein (reference enzyme). To be noted: S-2266 substrate. The procedure: as §1, §2, §3

Assay [7] concerns the target T7, Human plasmin (h plasmin) (Homo sapiens, UniProt P00747).
T7 construct: purchased Calbiochem
Briefly: Inhibition of human plasmin (reference enzyme). The conditions noted are these: Chromozym PL substrate. The procedure: as §1, §2, §3

The target in assay [8] is T8, human factor IIa (human alpha-thrombin) (Homo sapiens, UniProt P00734).
T8 construct: human alpha-thrombin from Enzyme Research Laboratories; purchased Enzyme Research Laboratories
The experiment in a line: Inhibition constants for human factor IIa, chromogenic substrate assay. The conditions noted are these: 25° C., Pefachrome tPA substrate, average of at least three determinations; read-out: Ki h FIIa. On the procedure: as §1
(§4) 200 μL of TBS (0.05 M trishydroxymethylaminomethane; 0.154 M NaCl, 2% ethanol, pH 8.0)
as §2

Assay [9] concerns the target T9, human Factor Xa (Homo sapiens, UniProt P00742).
T9 construct: human Factor Xa from Enzyme Research Laboratories; purchased Enzyme Research Laboratories
The experiment in a line: Inhibition constants for human factor Xa, chromogenic substrate assay. To be noted: 25° C., Pefachrome FXa substrate, average of at least three determinations; read-out: Ki h FXa. The procedure: as §1, §4, §2

Assay [10] concerns the target T10, Human tissue-type plasminogen activator (h t-PA) (Homo sapiens, UniProt P00750).
T10 construct: purchased Boehringer Ingelheim Actilyse
The experiment in a line: Inhibition of human tissue-type plasminogen activator (reference enzyme). To be noted: Pefachrome tPA substrate; read-out: Ki h t-PA. On the procedure: The equilibrium rates were used to calculate the inhibitor/enzyme dissociation constant (Ki values) by parameter fitting in accordance with the rate equation for competitive inhibition using GraFit (version 4 from Erithacus).
as §3

T10 sequence (P00750 36-562): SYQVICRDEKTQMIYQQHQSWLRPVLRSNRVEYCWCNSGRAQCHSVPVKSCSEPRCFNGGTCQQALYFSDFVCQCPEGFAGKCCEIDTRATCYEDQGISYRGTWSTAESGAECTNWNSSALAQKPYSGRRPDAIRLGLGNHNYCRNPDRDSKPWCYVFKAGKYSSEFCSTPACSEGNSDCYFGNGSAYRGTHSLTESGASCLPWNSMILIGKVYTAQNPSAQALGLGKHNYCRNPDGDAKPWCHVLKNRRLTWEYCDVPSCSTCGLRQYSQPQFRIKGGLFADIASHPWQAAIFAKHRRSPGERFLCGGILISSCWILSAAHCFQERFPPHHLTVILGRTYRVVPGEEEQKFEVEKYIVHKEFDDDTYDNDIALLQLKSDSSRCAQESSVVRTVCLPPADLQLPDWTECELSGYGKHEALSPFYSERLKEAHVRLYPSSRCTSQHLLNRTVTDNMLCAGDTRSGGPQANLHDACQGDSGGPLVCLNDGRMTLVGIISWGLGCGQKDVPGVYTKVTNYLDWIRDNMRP
T7 sequence (P00747 581-810 limits assumed): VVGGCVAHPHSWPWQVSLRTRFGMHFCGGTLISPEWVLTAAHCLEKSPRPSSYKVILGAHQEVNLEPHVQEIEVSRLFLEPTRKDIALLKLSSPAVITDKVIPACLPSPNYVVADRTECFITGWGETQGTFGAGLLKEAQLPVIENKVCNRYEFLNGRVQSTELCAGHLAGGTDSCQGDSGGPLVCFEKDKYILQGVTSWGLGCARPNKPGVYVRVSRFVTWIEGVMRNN
T7 sequence (P00747 97-580 partner limits assumed): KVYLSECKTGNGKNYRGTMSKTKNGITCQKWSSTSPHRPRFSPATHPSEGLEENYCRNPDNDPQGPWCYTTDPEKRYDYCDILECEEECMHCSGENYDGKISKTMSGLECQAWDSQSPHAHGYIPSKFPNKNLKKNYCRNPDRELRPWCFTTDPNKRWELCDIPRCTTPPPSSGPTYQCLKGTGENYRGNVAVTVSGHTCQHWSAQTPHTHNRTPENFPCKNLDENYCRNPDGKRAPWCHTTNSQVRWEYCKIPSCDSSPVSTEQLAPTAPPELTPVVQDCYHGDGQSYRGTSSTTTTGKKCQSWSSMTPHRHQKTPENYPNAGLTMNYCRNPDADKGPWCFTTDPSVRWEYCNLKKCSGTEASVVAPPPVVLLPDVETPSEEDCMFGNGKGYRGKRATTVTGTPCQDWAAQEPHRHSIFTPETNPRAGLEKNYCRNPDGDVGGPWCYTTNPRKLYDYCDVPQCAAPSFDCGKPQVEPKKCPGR
T9 sequence (P00742 235-488 limits assumed): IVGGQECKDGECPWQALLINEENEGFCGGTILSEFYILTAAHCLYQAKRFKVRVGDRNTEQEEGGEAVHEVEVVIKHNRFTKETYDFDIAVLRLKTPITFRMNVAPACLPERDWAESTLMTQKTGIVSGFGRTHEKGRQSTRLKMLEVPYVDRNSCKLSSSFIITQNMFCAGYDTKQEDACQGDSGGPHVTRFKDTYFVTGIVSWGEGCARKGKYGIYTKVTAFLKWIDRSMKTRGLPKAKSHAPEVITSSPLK
T9 sequence (P00742 41-179 partner limits assumed): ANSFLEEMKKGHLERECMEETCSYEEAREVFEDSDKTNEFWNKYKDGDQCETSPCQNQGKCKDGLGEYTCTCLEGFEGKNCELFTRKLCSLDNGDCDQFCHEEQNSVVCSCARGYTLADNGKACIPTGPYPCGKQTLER

One may read the pKi as the Ki on a negative log10 scale, so that one unit is a factor of ten. For the compound `CN(CC1CCNCC1)C(=O)C[C@@H](NS(=O)(=O)Cc1ccccc1)C(=O)N1CCC[C@H]1C(=O)NCc1cc(Cl)ccc1CN` [Compound 2.16], the negative logarithm of the Ki (pKi) is less than 4.30 in assay [1]; less than 4.00 in [2]; less than 4.00 in assay [3]; 6.38 in [4]; less than 5.00 in assay [5]; less than 4.30 in assay [6]. For the same compound, the negative logarithm of the Ki (pKi) is less than 5.30 in [7], 9.52 in [8], 8.82 in assay [9] and less than 4.30 in assay [10].

Turning to `CC(=O)N1CCC(CN(C)C(=O)C[C@@H](NS(=O)(=O)Cc2ccccc2)C(=O)N2CCC[C@H]2C(=O)NCc2cc(Cl)ccc2CN)CC1` [Compound 2.17], the pKi in assay [1] was less than 4.00; in assay [2], less than 4.40; in assay [3], less than 4.40; in [4], 6.38; in assay [5] it was less than 5.00; in [6], less than 4.70. In addition, the negative-log Ki (pKi) is less than 5.30 in assay [7], 9.70 in assay [8], 8.43 in assay [9] and less than 4.00 in [10].

On to `CN1CCN(C(=O)C[C@@H](NS(=O)(=O)Cc2ccccc2)C(=O)N2CCC[C@H]2C(=O)NCc2cc(Cl)ccc2CN)CC1` [Compound 2.18], for which the pKi in assay [1] was less than 4.30; in assay [2], less than 4.00; in assay [3], less than 4.00; in assay [4] it was 6.77; in assay [5] it was less than 4.60; in assay [6], less than 4.70. The pKi in [7] is less than 5.00; in [8] it was 8.82; in [9], 8.10; in assay [10], less than 4.30.

As to `NCc1ccc(Cl)cc1CNC(=O)[C@@H]1CCCN1C(=O)[C@@H](CC(=O)N1CCNCC1)NS(=O)(=O)Cc1ccccc1` [Compound 2.19], the pKi in assay [1] is less than 4.00; in assay [2] it was less than 4.82; in [3], less than 4.52; in assay [4] it was 5.99; in assay [5] it was less than 4.30; in assay [6], less than 5.30. The pKi in [7] was less than 5.34; in assay [8] it was 8.62; in assay [9], 8.82; in assay [10] it was less than 5.30.

Regarding `O=C(NCc1cc(Cl)ccc1-n1cnnn1)[C@@H]1CCCN1C(=O)[C@@H](CCC(=O)N1CCOCC1)NS(=O)(=O)Cc1ccccc1` [Compound 2.20], the pKi is less than 4.12 in [1]; less than 4.00 in assay [2]; less than 4.52 in assay [3]; 6.13 in assay [4]; less than 4.52 in assay [5]; less than 4.30 in assay [6]. The pKi in assay [7] was 5.14; in [8], 8.51; in [9] it was 8.42; in assay [10], less than 4.82.

As to `O=C(NCc1cc(Cl)ccc1-n1cnnn1)[C@@H]1C[C@H](O)CN1C(=O)[C@@H](CCC(=O)N1CCOCC1)NS(=O)(=O)Cc1ccccc1` [Compound 2.21], the pKi in [1] was less than 4.30; in assay [2], less than 4.00; in [3] it was less than 4.30; in assay [4], 5.92; in [5], less than 4.00; in [6], less than 4.00. The pKi in [7] is 4.97; in assay [8] it was 6.80; in [9], 8.28; in assay [10], less than 4.70.

As to `NCc1ccc(Cl)cc1CNC(=O)[C@@H]1C[C@H](O)CN1C(=O)[C@@H](CCC(=O)N1CCOCC1)NS(=O)(=O)Cc1ccccc1` [Compound 2.22], the pKi was less than 4.30 in [1]; less than 4.00 in assay [2]; less than 4.60 in assay [3]; 5.57 in assay [4]; less than 4.00 in assay [5]; less than 4.00 in assay [6]. Further, the pKi in [7] is less than 4.00; in assay [8], 7.07; in [9] it was 9.17; in assay [10] it was less than 4.00.
